Test results reported in ChEMBL document CHEMBL3885861, “Open TG-GATES”.

Species: Rattus norvegicus
Test: Open TG-GATES - Regimen: Single
Format: toxicity, organism-based, Sprague-Dawley
Parameters: regimen Single, gender Male, age 6 weeks
Conditions: in vivo, po, 0 mg/kg, route gavage, dose level Control; for APTT / Bas / Eos / Fbg / Hb / Ht / Lym / MCH / MCHC / MCV / Mono / Neu / PT / Plat / RBC / Ret / WBC: tissue Blood; for KIDNEY_L / KIDNEY_R / KIDNEY_TOTAL: tissue Kidney; for LIVER: tissue Liver; for A/G / ALP / ALT / AST / BUN / CRE / Ca / Cl / DBIL / GLC / IP / K / LDH / Na / PL / RALB / TBIL / TC / TG / TP / gamma-GTP: tissue Plasma

CCc1oc2ccccc2c1C(=O)c1cc(I)c(O)c(I)c1 [BENZIODARONE]
TERMINAL_BW (3 h): 211.5 g | APTT (3 h): 16.8 s | Bas (3 h): 0% | Eos (3 h): 0.4% | Fbg (3 h): 205.2 mg/dL | Hb (3 h): 13.7 g/dL | Ht (3 h): 40.7% | Lym (3 h): 81.8% | MCH (3 h): 22 pg | MCHC (3 h): 33.6% | MCV (3 h): 65.5 fL | Mono (3 h): 8% | Neu (3 h): 9.6% | PT (3 h): 11.9 s | Plat (3 h): 114.1 x10_4/uL | RBC (3 h): 621 x10_4/ul | Ret (3 h): 9.1% | WBC (3 h): 100.3 x10_2/uL | KIDNEY_L (3 h): 1 g | KIDNEY_R (3 h): 1 g | KIDNEY_TOTAL (3 h): 2 g | LIVER (3 h): 9.9 g | A/G (3 h): 2.2 | ALP (3 h): 888.8 IU/L | ALT (3 h): 33.4 IU/L | AST (3 h): 64 IU/L | BUN (3 h): 12.8 mg/dL | CRE (3 h): 0.5 mg/dL | Ca (3 h): 10.8 mg/dL | Cl (3 h): 104.2 meq/L | DBIL (3 h): 0.006 mg/dL | GLC (3 h): 191.8 mg/dL | IP (3 h): 9.6 mg/dL | K (3 h): 4.6 meq/L | LDH (3 h): 93.2 IU/L | Na (3 h): 141.4 meq/L | PL (3 h): 146 mg/dL | RALB (3 h): 3.8 g/dL | TBIL (3 h): 0.3 mg/dL | TC (3 h): 79.4 mg/dL | TG (3 h): 59.8 mg/dL | TP (3 h): 5.5 g/dL | gamma-GTP (3 h): 1.4 IU/L | TERMINAL_BW (6 h): 210.7 g | APTT (6 h): 17.7 s | Bas (6 h): 0% | Eos (6 h): 0.8% | Fbg (6 h): 204.4 mg/dL | Hb (6 h): 13.8 g/dL | Ht (6 h): 41.4% | Lym (6 h): 84% | MCH (6 h): 21.7 pg | MCHC (6 h): 33.3% | MCV (6 h): 65.1 fL | Mono (6 h): 5% | Neu (6 h): 10.6% | PT (6 h): 12 s | Plat (6 h): 116.7 x10_4/uL | RBC (6 h): 636.4 x10_4/ul | Ret (6 h): 11.3% | WBC (6 h): 115.5 x10_2/uL | KIDNEY_L (6 h): 1 g | KIDNEY_R (6 h): 1 g | KIDNEY_TOTAL (6 h): 1.9 g | LIVER (6 h): 9.5 g | A/G (6 h): 2.2 | ALP (6 h): 852.8 IU/L | ALT (6 h): 33 IU/L | AST (6 h): 62 IU/L | BUN (6 h): 9.8 mg/dL | CRE (6 h): 0.5 mg/dL | Ca (6 h): 10.6 mg/dL | Cl (6 h): 104.6 meq/L | DBIL (6 h): 0.046 mg/dL | GLC (6 h): 180.2 mg/dL | IP (6 h): 9.3 mg/dL | K (6 h): 4.6 meq/L | LDH (6 h): 81.2 IU/L | Na (6 h): 141.4 meq/L | PL (6 h): 126.6 mg/dL | RALB (6 h): 3.7 g/dL | TBIL (6 h): 0.4 mg/dL | TC (6 h): 71.4 mg/dL | TG (6 h): 57.6 mg/dL | TP (6 h): 5.4 g/dL | gamma-GTP (6 h): 1.4 IU/L | TERMINAL_BW (9 h): 208.6 g | APTT (9 h): 18 s | Bas (9 h): 0% | Eos (9 h): 1% | Fbg (9 h): 199 mg/dL | Hb (9 h): 13.6 g/dL | Ht (9 h): 40% | Lym (9 h): 77.6% | MCH (9 h): 22.4 pg | MCHC (9 h): 34% | MCV (9 h): 66 fL | Mono (9 h): 7.2% | Neu (9 h): 14.4% | PT (9 h): 12.3 s | Plat (9 h): 113.9 x10_4/uL | RBC (9 h): 606 x10_4/ul | Ret (9 h): 8.6% | WBC (9 h): 92 x10_2/uL | KIDNEY_L (9 h): 1 g | KIDNEY_R (9 h): 1 g | KIDNEY_TOTAL (9 h): 1.9 g | LIVER (9 h): 8.7 g | A/G (9 h): 2.3 | ALP (9 h): 824.8 IU/L | ALT (9 h): 30.8 IU/L | AST (9 h): 62 IU/L | BUN (9 h): 9.8 mg/dL | CRE (9 h): 0.5 mg/dL | Ca (9 h): 10.3 mg/dL | Cl (9 h): 105.6 meq/L | DBIL (9 h): 0.062 mg/dL | GLC (9 h): 191.8 mg/dL | IP (9 h): 10.9 mg/dL | K (9 h): 4.5 meq/L | LDH (9 h): 67 IU/L | Na (9 h): 142.4 meq/L | PL (9 h): 128 mg/dL | RALB (9 h): 3.7 g/dL | TBIL (9 h): 0.3 mg/dL | TC (9 h): 71.2 mg/dL | TG (9 h): 32.8 mg/dL | TP (9 h): 5.3 g/dL | gamma-GTP (9 h): 0.8 IU/L | TERMINAL_BW (24 h): 224.5 g | APTT (24 h): 16.7 s | Bas (24 h): 0% | Eos (24 h): 1.2% | Fbg (24 h): 203.6 mg/dL | Hb (24 h): 13.3 g/dL | Ht (24 h): 39.4% | Lym (24 h): 75.8% | MCH (24 h): 22 pg | MCHC (24 h): 33.8% | MCV (24 h): 65.2 fL | Mono (24 h): 7.2% | Neu (24 h): 16.2% | PT (24 h): 11.8 s | Plat (24 h): 117.5 x10_4/uL | RBC (24 h): 604.6 x10_4/ul | Ret (24 h): 8.8% | WBC (24 h): 109.7 x10_2/uL | KIDNEY_L (24 h): 1 g | KIDNEY_R (24 h): 1 g | KIDNEY_TOTAL (24 h): 2 g | LIVER (24 h): 10.8 g | A/G (24 h): 2.1 | ALP (24 h): 1056.6 IU/L | ALT (24 h): 37.8 IU/L | AST (24 h): 66 IU/L | BUN (24 h): 17.6 mg/dL | CRE (24 h): 0.5 mg/dL | Ca (24 h): 10.7 mg/dL | Cl (24 h): 105.6 meq/L | DBIL (24 h): 0.008 mg/dL | GLC (24 h): 200.6 mg/dL | IP (24 h): 7.6 mg/dL | K (24 h): 4.8 meq/L | LDH (24 h): 76.2 IU/L | Na (24 h): 141.8 meq/L | PL (24 h): 149.8 mg/dL | RALB (24 h): 3.8 g/dL | TBIL (24 h): 0.3 mg/dL | TC (24 h): 76 mg/dL | TG (24 h): 109.6 mg/dL | TP (24 h): 5.6 g/dL | gamma-GTP (24 h): 1 IU/L
